Reference: paper PMC6199744, “Development of Chemical Proteomics for the Folateome and Analysis of the Kinetoplastid Folateome” (ACS Infectious Diseases, 2018)
Where “and” joins values, the source holds several entries; their conditions need not be identical. Equal entries are not always repeated. Where two headings read alike, the source gives them in different places.

System: L. major lysate proteins
Assay: Multitargeted bead mixture chemoproteomics, single concentration competition, proteome-wide
Assay type: binding
Settings: for fold change / fold change relative to vehicle control: vehicle control = 1; for fold change relative to vehicle control: competition with free ligand

CCCCCCOc1ccc(Cc2cnc(N)nc2N)cc1 [compound 1]
fold change vs vehicle control: 0.96 and 1.16 and 1.02 and 0.84 | fold change (LINJ.05.0500 ATPASE ALPHA SUBUNIT): 1.04 | fold change (LINJ.36.4570 PROTEASOME REGULATORY ATPASE SUBUNIT): 0.72 | fold change (LMJF.10.0510 GLYCEROL-3-PHOSPHATE DEHYDROGENASE NAD ], GLYCOSOMAL): 0.92 | fold change (LMJF.16.1610 PROHIBITIN): 1.18 | fold change (LMJF.18.1370 HEAT SHOCK PROTEIN, PUTATIVE): 0.95 | fold change (LMJF.19.0300 RNA BINDING PROTEIN, PUTATIVE): 0.89 | fold change (LMJF.21.0760 […]-ATP-ASE SUBUNIT 5, PUTATIVE): 0.7 | fold change (LMJF.22.0410 HYPOTHETICAL PROTEIN, CONSERVED): 0.84 | fold change (LMJF.25.1770 ENOYL-COA REDUCTASE, PUTATIVE): 0.98 | fold change (LMJF.26.0300 AMINOPEPTIDASE-LIKE PROTEIN): 0.77 | fold change (LMJF.26.2560 HYPOTHETICAL PROTEIN, CONSERVED): 0.82 | fold change (LMJF.27.1810 GLYCOSOMAL PHOSPHOENOLPYRUVATE CARBOXYKINASE, PUTATIVE): 1.05 | fold change (LMJF.28.0490 PROPIONYL-COA CARBOXYLASE BETA CHAIN, PUTATIVE): 0.7 | fold change (LMJF.29.0940 HY[…], CONSERVED): 1.06 | fold change (LMJF.29.1310 CARNITINE/CHOLINE ACETYLTRANSFERASE, PUTATIVE): 0.99 | fold change (LMJF.29.1470 HYPOTHETICAL PROTEIN, CONSERVED): 0.73 | fold change (LMJF.29.2440 HYPOTHETICAL PROTEIN, CONSERVED): 0.88 | fold change (LMJF.30.2350 SPHINGOSINE 1-PHOSPHATE LYASE): 1.13 | fold change (LMJF.30.2970 GLYCERALDEHYDE 3-PHOSPHATE DEHYDROGENASE, GLYCOSOMAL): 1.09 | fold change (LMJF.30.3390 CAS/CSE/IMPORTIN DOMAIN PROTEIN, PUTATIVE): 0.85 | fold change (LMJF.31.2650 ACETOIN DEHYDROGENASE E3 COMPONENT-LIKE PROTEIN): 0.92 | fold change (LMJF.31.2970 ACETYL-COA CARBOXYLASE, PUTATIVE): 0.96 | fold change (LMJF.33.1030 HYPOTHETICAL PROTEIN, CONSERVED): 0.85 | fold change (LMJF.33.1930 PHOSPHORIBOSYLPYROPHOSPHATE SYNTHETASE, PUTATIVE): 0.91 | fold change (LMJF.35.5040 polyadenylate-binding protein 1): 0.93 | fold change (LMJF.35.5250 ALPHA-1,2-MANNOSYLTRANSFERASE, PUTATIVE): 0.88 | fold change (LMJF.36.5100 HYPOTHETICAL PROTEIN, CONSERVED): 0.89 | fold change (LMJF.[…] RIBOSOMAL PROTEIN S7, PUTATIVE): 1.43 | fold change vs vehicle control (protein LINJ.03.0940 HY[…], CONSERVED): 1.24 | fold change vs vehicle control (protein LINJ.09.0030 HYPOTHETICAL PROTEIN, CONSERVED): 0.98 | fold change relative to vehicle control (protein LINJ.11.0780 40S RIBOSOMAL PROTEIN S21, PUTATIVE): 1.29 | fold change (protein LINJ.13.0990 PROTEASOME REGULATORY ATPASE SUBUNIT 2, PUTATIVE): 0.79 | fold change vs vehicle control (protein LINJ.13.1460 ALPHA TUBULIN): 1 | fold change (protein LINJ.15.0090 HEAT SHOCK PROTEIN HSLVU, ATPASE SUBUNIT HSLU, PUTATIVE): 0.97 | fold change relative to vehicle control (protein LINJ.16.1380 […], PUTATIVE): 1.55 | fold change vs vehicle control (protein LINJ.19.0300 RNA BINDING PROTEIN): 1.16 | fold change relative to vehicle control (protein LINJ.20.1390 COATOMER BETA SUBUNIT, PUTATIVE): 1.01 | fold change vs vehicle control (protein LINJ.21.1310 40S RIBOSOMAL PROTEIN S23, PUTATIVE): 1.08 | fold change vs vehicle control (protein LINJ.23.1680 HYPOTHETICAL PROTEIN, CONSERVED): 0.98 | fold change vs vehicle control (protein LINJ.25.1170 […] OXIDASE VII, PUTATIVE): 1.03 | fold change relative to vehicle control (protein LINJ.25.1220 RIBOSOMAL PROTEIN S25): 1.36 | fold change vs vehicle control (protein LINJ.26.1080 HY[…], CONSERVED): 1.09 | fold change vs vehicle control (protein LINJ.27.1140 HYPOTHETICAL PROTEIN, CONSERVED): 0.97 | fold change vs vehicle control (protein LINJ.28.1100 RIBOSOMAL PROTEIN S20, PUTATIVE): 1 | fold change relative to vehicle control (protein LINJ.28.1940 REPLICATION FACTOR A, 51KDA SUBUNIT, PUTATIVE): 1.2 | fold change (protein LINJ.31.2350 ADP-RI[…], PUTATIVE): 1.13 | fold change vs vehicle control (protein LINJ.34.0670 PROTEASOME REGULATORY NON-ATP-ASE SUBUNIT 11, PUTATIVE): 0.97 | fold change (protein LINJ.35.0410 40S RIBOSOMAL PROTEIN S3A, PUTATIVE): 1.07 | fold change relative to vehicle control (protein LINJ.35.0780 CBS DOMAIN PROTEIN, CONSERVED): 1.21 | fold change vs vehicle control (protein LINJ.36.0510 HY[…], CONSERVED): 1.03 | fold change vs vehicle control (protein LINJ.36.3940 40S RIBOSOMAL PROTEIN S27-1, PUTATIVE): 0.91 | fold change (protein LINJ.36.4180 HS1VU COMPLEX PROTEOLYTIC SUBUNIT-LIKE): 0.81 | fold change (protein LINJ.36.7350 CYTOCHROME C OXIDASE SUBUNIT I): 0.96 | fold change (protein LMJF.01.0520 LONG-CHAIN-FATTY-ACID-COA LIGASE, PUTATIVE): 0.59 | fold change vs vehicle control (protein LMJF.02.0460 HYPOTHETICAL PROTEIN, CONSERVED): 0.96 | fold change vs vehicle control (protein LMJF.03.0230 LONG CHAIN FATTY ACYL COA SYNTHETASE, PUTATIVE): 1.11 | fold change vs vehicle control (protein LMJF.03.0630 HYPOTHETICAL PROTEIN, CONSERVED): 0.95 | fold change (protein LMJF.05.0780 HY[…], CONSERVED): 1.17 | fold change (protein LMJF.06.0010 HISTONE H4): 1.14 | fold change (protein LMJF.06.0140 PROTEASOME BETA 6 SUBUNIT, PUTATIVE): 0.8 | fold change (protein LMJF.06.0650 LANOSTEROL SYNTHASE, PUTATIVE): 0.88 | fold change vs vehicle control (protein LMJF.08.0510 RIBOSE-PHOSPHATE PYROPHOSPHOKINASE, PUTATIVE): 1.04 | fold change vs vehicle control (protein LMJF.08.0550 TRANSLATION INITIATION FACTOR-LIKE PROTEIN): 1.1 | fold change vs vehicle control (protein LMJF.08.1100 HY[…], CONSERVED): 1.01 | fold change relative to vehicle control (protein LMJF.09.1120 MIT[…] BINDING PROTEIN 2,MRP2, GBP25): 1.17 | fold change vs vehicle control (protein LMJF.09.1260 HY[…], CONSERVED): 1.16 | fold change (protein LMJF.10.1010 NUCLEOSIDE PHOSPHORYLASE-LIKE PROTEIN): 0.72 | fold change (protein LMJF.10.1240 HYPOTHETICAL PROTEIN, CONSERVED): 0.8 | fold change vs vehicle control (protein LMJF.11.0130 NGG1 I[…] 3-LIKE PROTEIN): 0.99 | fold change vs vehicle control (protein LMJF.11.0240 […] 7 SUBUNIT, PUTATIVE): 1.03 | fold change (protein LMJF.11.1050 PRETRA[…], ALPHA SUBUNIT, PUTATIVE): 1.11 | fold change vs vehicle control (protein LMJF.11.1110 60S RIBOSOMAL PROTEIN L28, PUTATIVE): 1.29 | fold change vs vehicle control (protein LMJF.12.0210 […] […]1L8 3, PUTATIVE): 1.04 | fold change vs vehicle control (protein LMJF.12.0280 ORNITHINE DECARBOXYLASE, PUTATIVE): 0.98 | fold change vs vehicle control (protein LMJF.13.0450 HYPOTHETICAL PROTEIN, CONSERVED): 0.99 | fold change vs vehicle control (protein LMJF.13.0870 MITOCHONDRIAL PROCESSING PEPTIDASE ALPHA SUBUNIT, PUTATIVE): 0.94 | fold change vs vehicle control (protein LMJF.14.0130 INOSINE-GUANINE NUCLEOSIDE HYDROLASE, PUTATIVE): 0.91 | fold change (protein LMJF.14.0310 […] 3 SUBUNIT, PUTATIVE): 1.01 | fold change (protein LMJF.14.0650 FATTY ACID ELONGASE, PUTATIVE): 0.96 | fold change (protein LMJF.14.0660 FATTY ACID ELONGASE, PUTATIVE): 1.11 | fold change (protein LMJF.14.0705 FATTY ACID ELONGASE, PUTATIVE): 1.02 | fold change (protein LMJF.14.0740 FATTY ACID ELONGASE, PUTATIVE): 1.2 | fold change relative to vehicle control (protein LMJF.14.1120 KINESIN K39, PUTATIVE): 1.45 | fold change vs vehicle control (protein LMJF.15.0230 LYSYL-TRNA SYNTHETASE, PUTATIVE): 1.07 | fold change vs vehicle control (protein LMJF.15.0280 RIBONUCLEOPROTEIN P18, MIT[…], PUTATIVE): 1.04 | fold change (protein LMJF.15.1010 GLUTAMATE DEHYDROGENASE): 1.09 | fold change relative to vehicle control (protein LMJF.16.0520 HYPOTHETICAL PROTEIN, CONSERVED): 2.54 | fold change (protein LMJF.16.0540 ASPARTATE CARBAMOYLTRANSFERASE, PUTATIVE): 0.89 | fold change vs vehicle control (protein LMJF.16.0950 SUCROSE-PHOSPHATE SYNTHASE-LIKE PROTEIN): 0.99 | fold change vs vehicle control (protein LMJF.16.0960 HYPOTHETICAL PROTEIN, CONSERVED): 0.44 | fold change (protein LMJF.16.1180 COATOMER DELTA SUBUNIT-LIKE PROTEIN): 0.87 | fold change (protein LMJF.17.0010 HYPOTHETICAL PROTEIN, CONSERVED): 0.88 | fold change vs vehicle control (protein LMJF.18.0510 ACONITASE, PUTATIVE): 0.98 | fold change vs vehicle control (protein LMJF.18.0890 RAB7 GTP BINDING PROTEIN, PUTATIVE): 0.94 | fold change (protein LMJF.18.1130 RAS-RELATED PROTEIN RAB-5, PUTATIVE): 0.85 | fold change (protein LMJF.19.1120 PROTEASOME REGULATORY NON-ATP-ASE SUBUNIT, PUTATIVE): 0.9 | fold change vs vehicle control (protein LMJF.19.1160 HYPOTHETICAL PROTEIN, CONSERVED): 0.83 | fold change vs vehicle control (protein LMJF.19.1530 PEPTIDYLPROLYL ISOMERASE-LIKE PROTEIN): 0.94 | fold change (protein LMJF.20.0100 PHOSPH[…] C, GLYCOSOMAL): 1.04 | fold change vs vehicle control (protein LMJF.21.0720 HY[…], CONSERVED): 1.05 | fold change (protein LMJF.21.1250 ADENYLATE KINASE, PUTATIVE): 0.98 | fold change (protein LMJF.21.1555 HY[…], CONSERVED): 1.01 | fold change (protein LMJF.21.1580 HY[…], UNKNOWN FUNCTION): 1.03 | fold change vs vehicle control (protein LMJF.21.1700 […] 2 SUBUNIT, PUTATIVE): 0.89 | fold change (protein LMJF.22.0230 AMINO ACID PERMEASE, PUTATIVE): 1.2 | fold change vs vehicle control (protein LMJF.22.0730 HYPOTHETICAL PROTEIN, CONSERVED): 1
